Experimental findings from PubChem BioAssay (NCI) are described below.

Test systems include SN12C renal; HS 578T breast; MALME-3M melanoma; HOP-62 NSCLC; A498 renal; NCI-H460 lung; TK-10 renal; IGROV1 ovarian; MOLT-4 leukemia; SK-MEL-5 melanoma; HL-60(TB) leukemia; HT29 colon; SK-OV-3 ovarian; NCI-H522 lung.
Assay in all cases: growth of human tumour cells (NCI), 48 h

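A five-concentration, 48-hour dose response in 96-well plates underlies each endpoint, interpolated linearly between surrounding concentrations. The concentration for full growth arrest is given as TGI.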

Regarding `CC(C)(C)NC(NC(C)(C)C)=C(C(Cl)=C(Cl)Cl)[N+](=O)[O-]`, the TGI with SN12C renal, with HS 578T breast, in the assay on MALME-3M melanoma, in the assay on HOP-62 NSCLC, in the assay on A498 renal and in the assay on NCI-H460 lung was more than 100 µM throughout. For the same compound, the TGI with TK-10 renal, with IGROV1 ovarian, with MOLT-4 leukemia, in the assay on SK-MEL-5 melanoma, in the assay with HL-60(TB) leukemia and in the assay with HT29 colon was more than 100 µM throughout. Besides, in the assay with SK-OV-3 ovarian, the TGI is more than 100 µM.
`C/C(Cl)=N\OC(=O)Nc1ccccc1C(F)(F)F`: the TGI in the assay on SN12C renal was more than 100 µM; in the assay with HS 578T breast it was more than 100 µM; in the assay with MALME-3M melanoma it was 48.1 µM; with A498 renal, more than 100 µM; in the assay with NCI-H460 lung it was more than 100 µM; with TK-10 renal, 28.8 µM. For the same compound, the TGI in the assay on IGROV1 ovarian was more than 100 µM; in the assay with MOLT-4 leukemia, 47.9 µM; in the assay on SK-MEL-5 melanoma, more than 100 µM; with HL-60(TB) leukemia it was 15.5 µM; in the assay with HT29 colon it was 34.7 µM; with SK-OV-3 ovarian it was more than 100 µM.
For the compound `NC(=O)c1n[nH]n(-c2ccccc2)c1=O`, the TGI in the assay on SN12C renal, in the assay on HS 578T breast, with MALME-3M melanoma, with HOP-62 NSCLC, in the assay on A498 renal and in the assay with NCI-H522 lung was more than 100 µM each time. In addition, the TGI with NCI-H460 lung, in the assay on TK-10 renal, in the assay with IGROV1 ovarian, in the assay on MOLT-4 leukemia, in the assay on SK-MEL-5 melanoma and in the assay on HT29 colon was more than 100 µM throughout. The TGI with SK-OV-3 ovarian is more than 100 µM.
Turning to `CC1=C/C(=N/N2C(=O)/C(=C/c3ccc(Cl)cc3)N=C2c2ccccc2)CC(C)(C)C1`, the TGI in the assay on SN12C renal, with HS 578T breast, in the assay with MALME-3M melanoma, in the assay on HOP-62 NSCLC, in the assay on A498 renal and in the assay with NCI-H522 lung was more than 100 µM each time. Moreover, the TGI with NCI-H460 lung, with TK-10 renal, with IGROV1 ovarian, in the assay on MOLT-4 leukemia, in the assay with SK-MEL-5 melanoma and with HT29 colon was more than 100 µM in each case. The TGI in the assay on SK-OV-3 ovarian is more than 100 µM.
For the compound `CCC(=O)OCc1ccc2oc(=O)c(C(=O)Oc3cncc(Cl)c3)cc2c1`, the TGI in the assay with SN12C renal, with HS 578T breast, in the assay on MALME-3M melanoma, with HOP-62 NSCLC, in the assay on NCI-H522 lung and with NCI-H460 lung was more than 100 µM each time. The TGI with TK-10 renal, in the assay with IGROV1 ovarian, in the assay with MOLT-4 leukemia, with SK-MEL-5 melanoma, in the assay on HT29 colon and in the assay with SK-OV-3 ovarian was more than 100 µM in each case.
Take `CC(SC(=S)N1CCCCC1)C(=O)Nc1nnc(-c2ccc(Cl)cc2)o1` (stereo unspecified): the TGI is 51.6 µM in the assay with SN12C renal; more than 100 µM with HS 578T breast; 72.6 µM in the assay with MALME-3M melanoma; more than 100 µM with HOP-62 NSCLC; 88.6 µM with A498 renal; more than 100 µM in the assay with NCI-H460 lung. The TGI is more than 100 µM with TK-10 renal; more than 100 µM with IGROV1 ovarian; more than 100 µM in the assay with SK-MEL-5 melanoma; 23.1 µM in the assay on HL-60(TB) leukemia; 54.6 µM with HT29 colon; more than 100 µM in the assay on SK-OV-3 ovarian.
As to `Oc1ccc2c(c1)OCC(O)(c1ccccc1O)C2` (stereo unspecified), the TGI with SN12C renal, with HS 578T breast, in the assay on HOP-62 NSCLC, with A498 renal, with NCI-H460 lung and with TK-10 renal was more than 100 µM each time. The TGI in the assay with IGROV1 ovarian, in the assay with MOLT-4 leukemia, in the assay on SK-MEL-5 melanoma, in the assay on HL-60(TB) leukemia, in the assay with HT29 colon and in the assay with SK-OV-3 ovarian was more than 100 µM throughout.
Turning to `OC(c1cccs1)c1cc2ccccc2s1` (stereo unspecified), the TGI with SN12C renal, in the assay on HS 578T breast, in the assay with HOP-62 NSCLC, in the assay with NCI-H522 lung, in the assay with NCI-H460 lung and with TK-10 renal was more than 10 µM each time. The TGI with IGROV1 ovarian, with MOLT-4 leukemia, with SK-MEL-5 melanoma, in the assay on HL-60(TB) leukemia, in the assay on HT29 colon and with SK-OV-3 ovarian was more than 10 µM each time.
Regarding `Cn1c(-c2csc(-c3ccc(Cl)cc3)n2)n[nH]c1=S`, the TGI in the assay with SN12C renal was more than 100 µM; in the assay on HS 578T breast it was 83.7 µM; with MALME-3M melanoma, 69.6 µM; in the assay with HOP-62 NSCLC it was 30.2 µM; in the assay on NCI-H522 lung it was 41 µM; with NCI-H460 lung, more than 100 µM. Moreover, the TGI in the assay with TK-10 renal is 40.2 µM; in the assay with IGROV1 ovarian, 38 µM; in the assay on MOLT-4 leukemia, more than 100 µM; in the assay on SK-MEL-5 melanoma, more than 100 µM; in the assay on HT29 colon it was more than 100 µM; in the assay with SK-OV-3 ovarian it was 32 µM.
